Three compounds from patent US7153844B2, “Estrogen-linked platinum (II) complexes as anticancer agents” (priority 2002, dated 2006) can be followed below.

Format in all cases: cell-based, human
One experiment concerns HEC-1A. The experiment can be described thus: Cell proliferation with the MTT assay. The following applies: read-out: IC50 (Inhibitory concentration 50%), uterus, ER−, NR = IC50 not reach at the concentrations tested. An excerpt:
(§1) Cell Proliferation with the MTT Assay (Uterine, Ovarian and Breast Cancer Cell Lines)
(§2) Several human uterine, ovarian and breast cancer cell lines were used to evaluate the antitumor activities of the new estrogen-linked platinum (II) complexes. The cytotoxicity of the platinum (II) complexes was done along with cisplatin as the control on both ER+ and ER— human uterine, ovarian and breast carcinomas. Cell proliferation was done with the MTT assay as described by J. Carmichael et al. (Cancer Res. 47, 943–946 (1987) see also C. H. J. Ford et al., Cancer Chemother. Pharmacol. 24, 295–301 (1986)). The MTT assay is based on the ability of viable cells to reduce a soluble colorless tetrazolium salt, 3-(4,5-dimethylthiazol-2-yl)-2,5-diphenyltetrazolium bromide (MTT), into an insoluble blue formazan derivative.

The next experiment relates to Ishikawa. The experiment is described as follows: Cell proliferation with the MTT assay. To be noted: read-out: IC50 (Inhibitory concentration 50%), uterus, ER+, NR = IC50 not reach at the concentrations tested.
Description: as §1, §2
In general terms: Tetrazolium assays rely on reduction of a dye to a coloured formazan, in cell work by metabolically active cells.

The next experiment deals with KLE. The experiment can be described thus: Cell proliferation with the MTT assay. The following applies: read-out: IC50 (Inhibitory concentration 50%), uterus, ER−, NR = IC50 not reach at the concentrations tested.
Description: as §1, §2

The test system of another experiment is RL-95-2. The experiment can be described thus: Cell proliferation with the MTT assay. To be noted: read-out: IC50 (Inhibitory concentration 50%), RL-95-2, uterus, ER+, NR = IC50 not reach at the concentrations tested.
Description: as §1, §2

A further experiment concerns MCF-7. The experiment can be described thus: Cell proliferation with the SRB assay. To be noted: read-out: IC50 (Inhibitory concentration 50%), MCF-7 (ER+) breast carcinoma. An excerpt:
(§3) Cell Proliferation with the SRB Assay (Breast Cancer Cell Lines)
(§4) Two human breast tumor cell lines were used to evaluate the antitumor activities of the new estrogen-linked platinum (II) complexes. […] Cell proliferation was done with the sulforhodamine B (SRB) assay as described by Alley, M. C. et al. (Cancer Research. no 48, 589–601 (1988)) and Boyd, M. R. & Paull, K. D. (Drug Development Research. 34, 91–109, (1995)).
On the technique in general: Sulforhodamine B stains cellular protein and so reports cell mass.

The subject of the next experiment is MDA-MB-231. The experiment can be described thus: Cell proliferation with the SRB assay. To be noted: read-out: IC50 (Inhibitory concentration 50%), MDA-MB-231 (ER−) breast carcinoma.
Description: as §3, §4

Where only a bound is given, the exact number is not on record here.

In the case of `N.N.[Cl][Pt][Cl]` [Cisplatin, cis-diamminedichloroplatinum (II), reference compound], the IC50 in the experiment with HEC-1A worked out at 20.8 ± 4.7 µM; in the experiment with Ishikawa, 3.7 ± 0.9 µM; with KLE, 24.3 ± 6.3 µM; in the experiment with RL-95-2, 14.1 ± 0.5 µM; in the experiment on MCF-7, 16.1 µM; with MDA-MB-231 it was 12.8 µM.
`C[C@]12CC[C@@H]3c4ccc(O)cc4CC[C@H]3[C@@H]1C[C@H](CCCCCCCCCCCNCc1ccccn1)[C@@H]2O.[Cl][Pt][Cl]` [derivative 12 (∘ = 1), 16β-[11′-(2″-picolylamino)undecanyl]-1,3,5(10)-estratrien-3,17β-diol dichloroplatinate (II)]: the IC50 turned out to be 13 µM in the experiment on HEC-1A; 28 µM in the experiment with Ishikawa; 6 µM with KLE; 7 µM in the experiment with RL-95-2; 5.9 µM in the experiment with MCF-7; 4.1 µM in the experiment on MDA-MB-231.
As for `C[C@]12CCC3c4ccc(O)cc4CCC3C1C[C@H](CCCCCCCCCCCNCCc1ccccn1)[C@@H]2O.[Cl][Pt][Cl]` (stereo partly drawn) [derivative 12 (∘ = 2), 16β-[11′-(2″-pyridylethylamino)undecanyl]-1,3,5(10)-estratrien-3,17β-diol dichloroplatinate (II)], the IC50 with HEC-1A was 3.75 µM; with Ishikawa, 0.25 µM; in the experiment on KLE, 1.75 µM; with RL-95-2, 1 µM; in the experiment with MCF-7, under 0.78 µM; in the experiment on MDA-MB-231, under 0.78 µM.
